One data set relates to CLIP protein tags. The data set is described as follows: Fluorescence activation of probe after incubation with corresponding protein tag (CLIP). In kind it is biochemical. Particulars: probe 5 μM, protein tag 10 μM, 37° C., 1 hr. Here is the method:
Probes were mixed with corresponding protein tags to obtain mixed samples, in which the final probe concentration was 5 μM, and the final protein tag concentration was 10 μM. The mixed samples were incubated 37° C. for 1 hr, fluorescence spectrophotometer was used to detect the change in fluorescence intensity, and the results are shown in Table 1.
From the quantum yield of probe bound to protein tag, after reacting with the protein tags, the probes of the Examples could be detected to have significant signal enhancement in corresponding excitation transmission channels, the fluorescence activation multiple reached several hundreds to a thousand or more, and the brightness was high, which illustrates that after the probes of the Examples are bound to the protein tags, fluorescence of the probes can be activated, and the probes have good fluorescent molecular switching properties. In contrast, though the fluorescence of the reference probes could also be activated, the quantum yield of activated fluorescence was very low, and the brightness was very poor. In particular, in view of comparison results between probe 98 and reference probe 99, probe 101 and reference probe 102, probe 103 and reference probe 104, probe 105 and reference probe 106, probe 107 and reference probe 108, probe 109 and reference probe 110, probe 111 and reference probe 112, probe 114 and reference probe 115, probe 117 and reference probe 118, probe 120 and reference probe 121 in Table 1, for the same fluorescent dye, when the ligand is connected to the electron donor part of the fluorescent dye, the fluorescence activation brightness of the probe is much higher than the reference probe in which ligand is connected to the electron acceptor part of the fluorescent dye.

Data set [1] in a line: Viscosity responsiveness: fluorescence emission spectra of probes in glycerol and methanol. The format is physicochemical. Particulars: for Emission wavelength: excited at maximum excitation wavelength of each probe; for Fluorescence ratio in glycerol to methanol: probe 1×10^−5 M. Put shortly: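 Each probe, from a 1×10^−2 M DMSO stock, was diluted to a final 1×10^−5 M in glycerol and in methanol. Fluorescence emission spectra were then recorded under identical conditions at each probe's maximum excitation wavelength.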

Data set [2] can be described thus: Fluorescence of free probe prior to binding to a protein tag. In kind it is physicochemical.
In a further data set the target is T1, SNAP protein tags (Homo sapiens, UniProt P16455, A127T/A154D/C150Q/C62A/E30R/G131K/G132T/G153L/K125A/K32I/L33F/M134L/N157G/Q115S/Q116H/R128A/R135S/S151G/S152D/S159E).
T1 sequence (P16455 1-182 E30R/K32I/L33F/C62A/Q115S/Q116H/K125A/A127T/R128A/G131K/G132T/M134L/R135S/C150Q/S151G/S152D/G153L/A154D/N157G/S159E): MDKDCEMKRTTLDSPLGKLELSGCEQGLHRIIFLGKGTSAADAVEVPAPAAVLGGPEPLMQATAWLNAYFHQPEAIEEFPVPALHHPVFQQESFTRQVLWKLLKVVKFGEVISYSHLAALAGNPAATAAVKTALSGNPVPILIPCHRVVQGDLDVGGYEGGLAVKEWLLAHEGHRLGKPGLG
The data set is described as follows: Fluorescence activation of probe after incubation with corresponding protein tag (SNAP). In kind it is biochemical. To be noted: probe 5 μM, protein tag 10 μM, 37° C., 1 hr. The procedure, abridged: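 Probe (5 μM final) mixed with CLIP or SNAP protein tag (10 μM final) and incubated 1 hr at 37° C. Fluorescence intensity change measured by fluorescence spectrophotometer, with quantum yield of tag-bound probe determined.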

Consider `CN(CCOC(=O)NCc1ccc(COc2nccc(N)n2)cc1)c1ccc(/C=C(\C#N)C(=O)OC(C)(C)C)cc1` [probe 7], for which, in the data set with CLIP protein tags, the Fluorescence activation multiple worked out at 1502 and the “Quantum yield of probe bound to protein tag” value (shortened to “Quantum yield of probe bound”) was 0.23. In data set [1], the Emission wavelength was 480 nm and the “Fluorescence ratio in glycerol to methanol” value (“Fluorescence ratio” below) came to 1455. For the same compound, the “Quantum yield of free probe” value in data set [2] is on record as below 0.001.
For `CN(CCOC(=O)NCc1ccc(COc2nccc(N)n2)cc1)c1ccc(/C=C(\C#N)c2nc3ccccc3o2)cc1` [probe 8], in the data set with CLIP protein tags, the Fluorescence activation multiple is recorded as 68 and the “Quantum yield of probe bound” value is 0.12. In data set [1], the Emission wavelength came to 510 nm and the “Fluorescence ratio” value stood at 320. The “Quantum yield of free probe” value in data set [2] came to 0.0018.
As for `CN(CCOC(=O)NCc1ccc(COc2nccc(N)n2)cc1)c1ccc(/C=C(\C#N)c2nc3ccccc3s2)cc1` [probe 9], in the data set on CLIP protein tags, the Fluorescence activation multiple is 745 and the “Quantum yield of probe bound” value is reported as 0.21. Further, in data set [1], the Emission wavelength is 531 nm and the “Fluorescence ratio” value was found to be 851. Besides, in data set [2], the “Quantum yield of free probe” value is recorded as below 0.001.
Take `CN1C(=O)/C(=C/c2ccc(N(C)CCOC(=O)NCc3ccc(COc4nccc(N)n4)cc3)cc2)N=C1/C=C/c1ccccc1` [probe 17]: in the data set on CLIP protein tags, the Fluorescence activation multiple worked out at 498 and the “Quantum yield of probe bound” value is given as 0.15. In addition, in data set [1], the Emission wavelength worked out at 580 nm and the “Fluorescence ratio” value amounted to 402. In addition, the “Quantum yield of free probe” value in data set [2] is below 0.001.
On to `CN(CCOC(=O)NCc1ccc(COc2nccc(N)n2)cc1)c1ccc(C2=C(C#N)C(=C(C#N)C#N)OC2(C)C)cc1` [probe 20], for which, in the data set with CLIP protein tags, the Fluorescence activation multiple is given as 398 and the “Quantum yield of probe bound” value was found to be 0.32. In data set [1], the Emission wavelength is on record as 535 nm and the “Fluorescence ratio” value is reported as 341. Moreover, the “Quantum yield of free probe” value in data set [2] is reported as below 0.001.
In the same order, the values of `CN(CCOC(=O)NCc1ccc(COc2nccc(N)n2)cc1)c1cc2sc(/C=C(\C#N)C(=O)OC(C)(C)C)cc2s1` [probe 27] are 665, 0.39, 555 nm, 1134 and below 0.001.
Take `CN(CCOC(=O)NCc1ccc(COc2nccc(N)n2)cc1)c1cc2sc(/C=C(\C#N)c3nc4ccccc4o3)cc2s1` [probe 28]: in the data set on CLIP protein tags, the Fluorescence activation multiple amounted to 551 and the “Quantum yield of probe bound” value worked out at 0.31. In data set [1], the Emission wavelength is 590 nm and the “Fluorescence ratio” value is listed as 1132. Further, the “Quantum yield of free probe” value in data set [2] is listed as below 0.001.
Turning to `N#C/C(=C\c1ccc2c(c1)SCCN2CCOC(=O)NCc1ccc(COc2nc(N)nc3[nH]cnc23)cc1)c1nc2ccccc2s1` [probe 86], in data set [1], the Emission wavelength is given as 550 nm and the “Fluorescence ratio” value is reported as 214. Moreover, at SNAP protein tags, the Fluorescence activation multiple amounted to 413 and the “Quantum yield of probe bound” value was found to be 0.17. Further, the “Quantum yield of free probe” value in data set [2] was below 0.001.
In the case of `CC1=CC(C)(C)N(CCOC(=O)NCc2ccc(COc3nc(N)nc4[nH]cnc34)cc2)c2ccc(/C=C(\C#N)C(=O)OC(C)(C)C)cc21` [probe 87], in data set [1], the Emission wavelength was 575 nm and the “Fluorescence ratio” value came to 209. Moreover, on SNAP protein tags, the Fluorescence activation multiple is 515 and the “Quantum yield of probe bound” value is listed as 0.45. In addition, in data set [2], the “Quantum yield of free probe” value is on record as below 0.001.
As for `CC1=CC(C)(C)N(CCOC(=O)NCc2ccc(COc3nc(N)nc4[nH]cnc34)cc2)c2ccc(/C=C(\C#N)c3nc4ccccc4s3)cc21` [probe 89], in data set [1], the Emission wavelength is listed as 612 nm and the “Fluorescence ratio” value turned out to be 129. Further, on SNAP protein tags, the Fluorescence activation multiple is on record as 421 and the “Quantum yield of probe bound” value is given as 0.32. In addition, in data set [2], the “Quantum yield of free probe” value is reported as below 0.001.
Consider `CN(CCOC(=O)NCc1ccc(COc2nc(N)nc3[nH]cnc23)cc1)c1cc2c(s1)-c1sc(/C=C(/C#N)C(=O)O)cc1C2(C)C` [probe 98], for which, in data set [1], the Emission wavelength is reported as 650 nm and the “Fluorescence ratio” value stood at 182. Further, at SNAP protein tags, the Fluorescence activation multiple is 893 and the “Quantum yield of probe bound” value amounted to 0.78. In data set [2], the “Quantum yield of free probe” value is reported as below 0.001.
As for `CN(CCOC(=O)NCc1ccc(COc2nc(N)nc3[nH]cnc23)cc1)c1ccc(/C=C(\C#N)C(=O)O)cc1` [probe 101], in data set [1], the Emission wavelength came out at 481 nm and the “Fluorescence ratio” value is recorded as 362. Besides, on SNAP protein tags, the Fluorescence activation multiple is on record as 463 and the “Quantum yield of probe bound” value worked out at 0.37. Besides, the “Quantum yield of free probe” value in data set [2] is below 0.001.
On the same counts, the results for `N#C/C(=C\c1ccc2c(c1)SCCN2CCOC(=O)NCc1ccc(COc2nc(N)nc3[nH]cnc23)cc1)C(=O)O` [probe 103] are 515 nm, 321, 651, 0.27 and below 0.001.
In the same order, the values of `CC1=CC(C)(C)N(CCOC(=O)NCc2ccc(COc3nc(N)nc4[nH]cnc34)cc2)c2ccc(/C=C(\C#N)C(=O)O)cc21` [probe 105] are 510 nm, 328, 549, 0.41 and below 0.001.
In the same order, the values of `CN(CCOC(=O)NCc1ccc(COc2nc(N)nc3[nH]cnc23)cc1)c1cc2sc(/C=C(\C#N)C(=O)O)cc2s1` [probe 107] are 555 nm, 526, 564, 0.47 and below 0.001.
Turning to `CN(CCOC(=O)NCc1ccc(COc2nc(N)nc3[nH]cnc23)cc1)c1ccc(C#C/C=C(\C#N)C(=O)O)cc1` [probe 109], in data set [1], the Emission wavelength was determined as 566 nm and the “Fluorescence ratio” value amounted to 341. Also, at SNAP protein tags, the Fluorescence activation multiple was 546 and the “Quantum yield of probe bound” value worked out at 0.33. Moreover, in data set [2], the “Quantum yield of free probe” value is below 0.001.
On to `CN(CCOC(=O)NCc1ccc(COc2nc(N)nc3[nH]cnc23)cc1)c1ccc2cc(/C=C(\C#N)C(=O)O)sc2c1` [probe 111], for which, in data set [1], the Emission wavelength is 570 nm and the “Fluorescence ratio” value turned out to be 621. For the same compound, on SNAP protein tags, the Fluorescence activation multiple came to 681 and the “Quantum yield of probe bound” value is 0.49. Further, the “Quantum yield of free probe” value in data set [2] was below 0.001.
With `CN(CCOC(=O)NCc1ccc(COc2nc(N)nc3[nH]cnc23)cc1)c1ccc2nc(/C=C(\C#N)C(=O)O)sc2c1` [probe 114], in data set [1], the Emission wavelength worked out at 625 nm and the “Fluorescence ratio” value was 230. Besides, on SNAP protein tags, the Fluorescence activation multiple turned out to be 328 and the “Quantum yield of probe bound” value is given as 0.27. For the same compound, in data set [2], the “Quantum yield of free probe” value was below 0.001.
On to `CN(CCOC(=O)NCc1ccc(COc2nc(N)nc3[nH]cnc23)cc1)c1ccc(-c2ccc(/C=C(\C#N)C(=O)O)s2)cc1` [probe 117], for which, in data set [1], the Emission wavelength is reported as 620 nm and the “Fluorescence ratio” value was determined as 321. On SNAP protein tags, the Fluorescence activation multiple amounted to 562 and the “Quantum yield of probe bound” value is 0.39. Besides, the “Quantum yield of free probe” value in data set [2] is on record as below 0.001.
On the same counts, the results for `CN(CCOC(=O)NCc1ccc(COc2nc(N)nc3[nH]cnc23)cc1)c1ccc(-c2ccc(/C=C(\C#N)C(=O)O)s2)s1` [probe 120] are 656 nm, 421, 469, 0.42 and below 0.001.
